In patent US20210290676A1, “IMPROVING THE EFFICACY AND SAFETY OF ADOPTIVE CELLULAR THERAPIES” (University of Southern California, priority 2018, published 2021):

How the values were obtained:
Type in all cases: cell-based, human
[1] = test system: CD8+CD45RA+CCR7+CD62L+ T cells; assay: Flow cytometry for CD8, CD45RA, CCR7 and CD62L on inhibitor-treated T cells; details: 13 days of treatment
Protocol: (§1) DAY 0: Blood was obtained from unidentified donor. After RBC lysis, PBMC were collected using Ficoll-Hypaque separation. […] T cells were cultured in three different conditions: • 1. XVIVO 15 medium (Lonza) with IL2 50 IU/ml, CD3 antibody (30 ng/ml) and CD28 antibody (30 ng/ml). • 2. XVIVO 15 medium (Lonza) with CD3 antibody (30 ng/ml) and CD28 antibody (30 ng/ml). • 3. XVIVO 15 medium (Lonza) with IL2 50 IU/ml DAY 1: Cells were plated in a 6-well plate at a density of 1 million cells in 2 ml/of media (as described above) and treated with different inhibitors
(§2) A second aliquot of the cells cultured for 13 days with all the treatments listed above (1-21) was washed with PBS+1% FBS, stained with CD8-PerCP, CD45RA-FITC, CCR7-PE and CD62L-APC (5% Y/100 μl/sample for each of 4 antibodies) at 4° C. for 1 h, washed twice with PBS+100 FBS and analyzed on flow cytometer to check if these drugs are enriching T stem cells showing surface expression of CD8+CD45RA+CCR7+CD62L+.
(§3) Day 0: Blood was obtained from unidentified donor. After RBC lysis, PBMC were collected using Ficoll-Hypaque separation. 200 million T cells were isolated from PBMCs using CD3 microbeads. T cells were cultured overnight in XVIVO 15 medium (Lonza) with IL2 (50 IU/ml), 30 ng/ml of CD3 and CD28 antibodies
(§4) Day 1: Cells were plated in 24-well plates at a density of 0.3 million cells/ml in each well and treated with different drugs.
(§5) On day 7, culture medium was replaced with fresh medium with fresh drugs.
(§6) On day 13, culture medium was replaced with fresh medium and fresh drugs. Half of the cells were transferred to 6-well plates.
as §2, with “14” for “13”, “above” for “above (1-21)”, “(5 ul/100 ul/sample” for “(5% Y/100 μl/sample”, “PBS+1%” for “PBS+100”, “enriching for” for “enriching”, “T” for “T stem”

[2] = test system: Pgp+ (DiOC2(3)-dye effluxing cells) and CD62L+ T cells; assay: DiOC2(3) dye efflux plus CD62L-APC staining, flow cytometry of inhibitor-treated T cells
Protocol: (§7) The use of P-glycoprotein (Pgp)-mediated efflux of DiOC2(3) to isolate stem like T cells for adoptive cellular therapy has been described in application no. […] In the following examples, DiOC2(3) staining was used to study the effect of different inhibitors on generation of stem like T cells.
as §1
(§8) The cell growth medium was changed in 6-well plates and fresh drugs were added at same concentration for one more week.
(§9) […] (DAY 11): Culture medium was changed and fresh drugs were added in 6-well plates.
(§10) Subsequently, cells were washed with RPMI medium and dye was effluxed at 37° C. for 90 min. Cells were washed with […], stained with CD62L-APC (5 μl/100 μl/sample) at 4° C. for 1 h, washed twice with PBS+1% FBS and analyzed on flow cytometer to check if these drugs treatment leads to increase in Pgp+/CD62L positive population.
as §3, §4, §5, §6
(§11) Day 14: An aliquot of cells with all the treatments listed above (for 13 days) was used to stain the cells with DiOC2(3) (60 ng/ml in RPMI medium) at 4° C. for 40 min, washed with RPMI medium, DiOC2(3) dye was effluxed at 37° C. for 90 min, washed with PBS+1% FBS, stained with CD62L-APC antibody. CD62L is a marker for resting T cells. (5 μl/100 μl/sample) at 4° C. for 1 h, washed twice with PBS+1% FBS and analyzed on flow cytometer to check if these drugs are affecting the dye-effluxing or Pgp+ (i.e., DiOC2(3)-dull) T-cell population.

[3] = test system: Pgp+ (DiOC2(3)-dye effluxing) T cells; assay: DiOC2(3) dye efflux flow cytometry of inhibitor-treated T cells
Protocol: as §7, §1, §8, §9, §10, §3, §4, §5, §6, §11

[4] = test system: CD45RA+CCR7+CD62L+ T cells; assay: Flow cytometry for CD45RA, CCR7 and CD62L on inhibitor-treated T cells (all T cells); details: 13 days treatment
Protocol: as §1, §2, §3, §4, §5, §6
as §2, with “14” for “13”, “above” for “above (1-21)”, “(5 ul/100 ul/sample” for “(5% Y/100 μl/sample”, “PBS+1%” for “PBS+100”, “enriching for” for “enriching”, “T” for “T stem”

[5] = CD3-CD28-IL2 culture, inhibitor 100 nM
[6] = CD3-CD28-IL2 culture, inhibitor 500 nM
[7] = CD3-CD28-IL2 culture, inhibitor 1 μM
[8] = CD3-CD28 culture, inhibitor 100 nM
[9] = CD3-CD28 culture, inhibitor 500 nM
[10] = CD3-CD28 culture, inhibitor 1 μM
[11] = CD3-IL2 culture, inhibitor 100 nM
[12] = CD3-IL2 culture, inhibitor 500 nM
[13] = CD3-IL2 culture, inhibitor 1 μM
[14] = culture with CD3 antibody, CD28 antibody and IL2, 6 days of treatment, 500 nM

CCCc1cc(C)[nH]c(=O)c1CNC(=O)c1cc(-c2ccnc(N3CCN(C)CC3)c2)cc2c1cnn2C(C)C [GSK343]
% of CD62L+CCR7+ double positive cells out of CD45RA+ cells in CD8+ T cell population [1, 5]: 82.96%
% of CD62L+CCR7+ double positive cells out of CD45RA+ cells in CD8+ T cell population [1, 6]: 82.42%
% of CD62L+CCR7+ double positive cells out of CD45RA+ cells in CD8+ T cell population [1, 7]: 85.00%
% of CD62L+CCR7+ double positive cells out of CD45RA+ cells in CD8+ T cell population [1, 8]: 85.28%
% of CD62L+CCR7+ double positive cells out of CD45RA+ cells in CD8+ T cell population [1, 9]: 80.34%
% of CD62L+CCR7+ double positive cells out of CD45RA+ cells in CD8+ T cell population [1, 10]: 85.70%
% of CD62L+CCR7+ double positive cells out of CD45RA+ cells in CD8+ T cell population [1, 11]: 73.95%
% of CD62L+CCR7+ double positive cells out of CD45RA+ cells in CD8+ T cell population [1, 12]: 77.29%
% of CD62L+CCR7+ double positive cells out of CD45RA+ cells in CD8+ T cell population [1, 13]: 81.47%
% of Pgp+ CD62L+cells out of live cells ([2]; CD3-CD28-IL2 culture, inhibitor 100 nM, 6 days treatment): 8.57%
% of Pgp+ CD62L+cells out of live cells ([2]; CD3-CD28-IL2 culture, inhibitor 100 nM, 13 days treatment): 7.96%
% of Pgp+ CD62L+cells out of live cells ([2]; CD3-CD28-IL2 culture, inhibitor 500 nM, 6 days treatment): 13.33%
% of Pgp+ CD62L+cells out of live cells ([2]; CD3-CD28-IL2 culture, inhibitor 500 nM, 13 days treatment): 4.79%
% of Pgp+ CD62L+cells out of live cells ([2]; CD3-CD28-IL2 culture, inhibitor 1 μM, 6 days treatment): 12.05%
% of Pgp+ CD62L+cells out of live cells ([2]; CD3-CD28-IL2 culture, inhibitor 1 μM, 13 days treatment): 5.75%
% of Pgp+ CD62L+cells out of live cells ([2]; CD3-CD28 culture, inhibitor 100 nM, 6 days treatment): 23.35%
% of Pgp+ CD62L+cells out of live cells ([2]; CD3-CD28 culture, inhibitor 100 nM, 13 days treatment): 2.50%
% of Pgp+ CD62L+cells out of live cells ([2]; CD3-CD28 culture, inhibitor 500 nM, 6 days treatment): 24.79%
% of Pgp+ CD62L+cells out of live cells ([2]; CD3-CD28 culture, inhibitor 500 nM, 13 days treatment): 2.12%
% of Pgp+ CD62L+cells out of live cells ([2]; CD3-CD28 culture, inhibitor 1 μM, 6 days treatment): 23.41%
% of Pgp+ CD62L+cells out of live cells ([2]; CD3-CD28 culture, inhibitor 1 μM, 13 days treatment): 2.28%
% of Pgp+ CD62L+cells out of live cells ([2]; CD3-IL2 culture, inhibitor 100 nM, 6 days treatment): 8.62%
% of Pgp+ CD62L+cells out of live cells ([2]; CD3-IL2 culture, inhibitor 100 nM, 13 days treatment): 5.24%
% of Pgp+ CD62L+cells out of live cells ([2]; CD3-IL2 culture, inhibitor 500 nM, 6 days treatment): 9.32%
% of Pgp+ CD62L+cells out of live cells ([2]; CD3-IL2 culture, inhibitor 500 nM, 13 days treatment): 6.82%
% of Pgp+ CD62L+cells out of live cells ([2]; CD3-IL2 culture, inhibitor 1 μM, 6 days treatment): 10.99%
% of Pgp+ CD62L+cells out of live cells ([2]; CD3-IL2 culture, inhibitor 1 μM, 13 days treatment): 5.17%
percentage of Pgp+CD62L+ cells [2, 14]: 13.33%
% of Pgp+ cells out of live cells ([3]; CD3-CD28-IL2 culture, inhibitor 100 nM, 6 days of treatment): 23.29%
% of Pgp+ cells out of live cells ([3]; CD3-CD28-IL2 culture, inhibitor 100 nM, 13 days of treatment): 27.15%
% of Pgp+ cells out of live cells ([3]; CD3-CD28-IL2 culture, inhibitor 500 nM, 6 days of treatment): 30.62%
% of Pgp+ cells out of live cells ([3]; CD3-CD28-IL2 culture, inhibitor 500 nM, 13 days of treatment): 18.00%
% of Pgp+ cells out of live cells ([3]; CD3-CD28-IL2 culture, inhibitor 1 μM, 6 days of treatment): 28.03%
% of Pgp+ cells out of live cells ([3]; CD3-CD28-IL2 culture, inhibitor 1 μM, 13 days of treatment): 23.42%
% of Pgp+ cells out of live cells ([3]; CD3-CD28 culture, inhibitor 100 nM, 6 days of treatment): 48.43%
% of Pgp+ cells out of live cells ([3]; CD3-CD28 culture, inhibitor 100 nM, 13 days of treatment): 11.66%
% of Pgp+ cells out of live cells ([3]; CD3-CD28 culture, inhibitor 500 nM, 6 days of treatment): 47.09%
% of Pgp+ cells out of live cells ([3]; CD3-CD28 culture, inhibitor 500 nM, 13 days of treatment): 10.34%
% of Pgp+ cells out of live cells ([3]; CD3-CD28 culture, inhibitor 1 μM, 6 days of treatment): 46.26%
% of Pgp+ cells out of live cells ([3]; CD3-CD28 culture, inhibitor 1 μM, 13 days of treatment): 9.43%
% of Pgp+ cells out of live cells ([3]; CD3-IL2 culture, inhibitor 100 nM, 6 days of treatment): 25.49%
% of Pgp+ cells out of live cells ([3]; CD3-IL2 culture, inhibitor 100 nM, 13 days of treatment): 20.31%
% of Pgp+ cells out of live cells ([3]; CD3-IL2 culture, inhibitor 500 nM, 6 days of treatment): 25.21%
% of Pgp+ cells out of live cells ([3]; CD3-IL2 culture, inhibitor 500 nM, 13 days of treatment): 23.54%
% of Pgp+ cells out of live cells ([3]; CD3-IL2 culture, inhibitor 1 μM, 6 days of treatment): 28.31%
% of Pgp+ cells out of live cells ([3]; CD3-IL2 culture, inhibitor 1 μM, 13 days of treatment): 17.50%
percentage of Pgp+ cells [3, 14]: 30.62%
% of CD62L+CCR7+ double positive cells out of CD45RA+ cells in live T cell population [4, 5]: 66.40%
% of CD62L+CCR7+ double positive cells out of CD45RA+ cells in live T cell population [4, 6]: 64.47%
% of CD62L+CCR7+ double positive cells out of CD45RA+ cells in live T cell population [4, 7]: 67.37%
% of CD62L+CCR7+ double positive cells out of CD45RA+ cells in live T cell population [4, 8]: 75.26%
% of CD62L+CCR7+ double positive cells out of CD45RA+ cells in live T cell population [4, 9]: 67.97%
% of CD62L+CCR7+ double positive cells out of CD45RA+ cells in live T cell population [4, 10]: 76.18%
% of CD62L+CCR7+ double positive cells out of CD45RA+ cells in live T cell population [4, 11]: 58.51%
% of CD62L+CCR7+ double positive cells out of CD45RA+ cells in live T cell population [4, 12]: 61.18%
% of CD62L+CCR7+ double positive cells out of CD45RA+ cells in live T cell population [4, 13]: 61.06%
